In patent publication US5853731A, “Thromboxane A2 Receptor antagonism and antioxidant action of cinnamophilin and its derivatives, their pharmaceutical compositions and uses” (National Science Council, priority 1997, dated 1998):

How the values were obtained:
rat thoracic aorta = test: Rat aortic contraction caused by norepinephrine and high potassium (KCl); format: cell-based, Wistar rat; conditions: 15 min; for K+ contraction (%), Tonic: K+ (80 mM); for norepinephrine contraction (%), Phrase (phasic) / norepinephrine contraction (%), Tonic: norepinephrine 3 μM
Protocol: A. Rat Aortic Contraction
Wistar rats of either sex weighing 250 g to 300 g were killed by a blow to the head. The thoracic aorta was isolated and excess fat and connective tissue were removed. Vessels were cut into rings of about 5 mm in length and mounted in organ baths containing 5 ml Krebs solution of the following composition (mM): NaCl (118.4), KCl (4.7), CaCl (1.9), MgSO4 (1.2), KH2 PO4 (1.2), NaHCO3 (25.0) and glucose (11.7). The tissue bath solution was maintained at 37° C. and gassed with 95% O2 :5% CO2 mixture. Two stainless steel hooks were inserted into the aortic lumen, one was fixed while the other was connected to a transducer. Aortae were equilibrated in the medium for 90 min with three changes of Krebs solution and maintained under an optimal tension of 1 g before specific experimental protocols were initiated.
Contraction was recorded isometrically via a force-displacement transducer connected to a Grass polygraph. Aortae were allowed to preincubate for 15 minutes with cinnamophilin before generating the cumulative concentration-response curve with each agonist for 15-30 min at 3 min intervals. Results are expressed as a percentage of the maximal control response for each agonist.
Rat aorta ring were preincubated with lignans or DMSO (0.1% control) at
37° C. for 15 min, then the inducer was added.

[1] = system: platelet aggregation, aortic contraction, tracheal contraction; test: Bioassay / pharmacological evaluation (platelet aggregation, rat aortic contraction, guinea-pig tracheal contraction); conditions: rat aortic and guinea-pig tracheal contraction bioassays
Protocol: The methods of isolation might be performed using polar organic solvent such as methanol, ethanol and acetone. Solvent of the extract from root parts of Cinnamomum philippinense was evaporated and the residue was suspended in water, and extracted with chloroform or other non-polar organic solvents. Bioassay was performed by using this chloroform layer in platelet aggregation test, rat aortic contraction, and guinea-pig tracheal contraction. Purified bioactive components were obtained through silica gel column, then afforded cinnamophilin (1), two known lignan compounds as (+)-guaiacin (3), meso-dihydroguaiaretic acid (2) and an aromatic acid as vallinic acid.
Compounds II-V wherein R1 represents H, C1-8 alkyl, --OCOR, wherein R2 represents OH, COO--, wherein R represents H, C1-8 alkyl. Preferred substituted alkyl group is 8 carbon number, optical alkyl group is 6 carbon number. Structures of these compounds were elucidated on the basis of their IR, UV, ^1 H-NMR, ^13 C-NMR, Mass spectra as well as the elemental analytical data.

rabbit platelets = test: Aggregation of washed rabbit platelet suspension induced by AA, PAF, collagen, U-46619, ADP and thrombin; format: cell-based
Protocol: A. Preparation of aggregation inducing agent
1. Collagen (bovine tendon) in 15 mM aqueous acetic acid was homogenized at 4° C. to form a well dispersed suspension in 1 mg/ml and stocked at -70° C. Before using, it was thawed and well homogenized.
2. PAF was dissolved in CCl4 and stocked at […] Before using, it was diluted with deionized water.
3. […] and sodium arachidonate (AA) were dissolved in deionized water for use.
B. Preparation of platelets
A suspension of platelets was prepared according to the reported method. EDTA (100 mM) and the blood obtained from rabbit's ear vein were mixed in the ratio of 1:4, and immediately centrifuged (120× g) at room temperature for 10 minutes. Platelet-rich plasma was subjected to further centrifuge (500× g) for another 10 minutes. After the plasma was removed, the platelets in the lower layer were suspended in the Tyrode solution containing EDTA (2 mM) and bovine serum albumin (3.5 mg/ml), and subjected to centrifuge (500× g) again for 10 minutes. The platelets obtained were suspended in a Tyrode solution containing no EDTA, and was adjusted to about 4.5×10^8 cells/ml by a cell counter. 1 mM of calcium ion (Ca^2+) was added to the suspension. 30 minutes after the addition, the experiment was conducted. The composition of Tyrode […]: NaCl (136.9), KCl (2.7), NaH2 PO4 (0.4), NaHCO3 (11.9), glucose (11.1).
C. Platelet aggregation and ATP release reaction test
The method reported by Born (J. Physiol. 168, 178, 1963) was used to determine the platelet aggregation by a Lumi-aggregometer (Model 1020, Payton, Canada). Platelet suspension (0.4 ml) was added into a small glass tube coated with silicone, and stirred at 900 rpm with a small magnetic stirrer. Unless otherwise specified, the antagonist was added 1 minute before the inducing agent, and all the reactions were carried out at 37° C. The aggregation was calculated by following formula: […]
aggregation (% )=(light absorption before adding inducing agent-light absorption after adding inducing agent)/(light absorption before adding inducing agent-light absorption of Tyrode solution)×100% […]
| Platelets were precincubated with 1a, 1b, 1c, 1e, 2 or DMSO (0.5%, | control) at 37° C. for 3 min, then the inducer was added.

[2] = molecular target: thromboxane A2 synthetase; conditions: Hoet et al., Blood 75, 646-53, 1990; read-out: IC50, thromboxane A2 synthetase inhibition; cited from earlier work
thromboxane receptor = conditions: Hoet et al., Blood 75, 646-53, 1990; read-out: IC50, thromboxane receptor inhibition; cited from earlier work
[3] = Antioxidation (absorbance at 500 nm, FeSCN method); conditions: 20 μM
Excerpt: (Absorbance at 500 nm, using FeSCN method)

[4] = compared with BHA or BHT; background statement; cited from earlier work
[5] = inducer AA (100 μM), conc 20 μM, control 92.1 ± 1.3
[6] = inducer ADP (20 μM), conc 300 μM, control 81.6 ± 3.0
[7] = inducer PAF (2 ng/ml), conc 300 μM, control 91.7 ± 2.0
[8] = inducer U-46619 (1 μM), conc 200 μM, control 89.4 ± 1.2
[9] = inducer collagen (10 μg/ml), conc 50 μM, control 93.6 ± 1.0
[10] = inducer collagen (10 μg/ml), conc 100 μM, control 93.6 ± 1.0
[11] = inducer collagen (10 μg/ml), conc 200 μM, control 93.6 ± 1.0
[12] = inducer thrombin (0.1 U/ml), conc 300 μM, control 94.8 ± 2.0
[13] = inducer AA (100 μM), conc 50 μM, control 92.1 ± 1.3
[14] = inducer AA (100 μM), conc 100 μM, control 92.1 ± 1.3
[15] = inducer AA (100 μM), conc 200 μM, control 92.1 ± 1.3

COc1cc(C[C@@H](C)[C@@H](C)Cc2ccc(O)c(OC)c2)ccc1O [Compound 2, meso-dihydroguaiaretic acid, reference compound]
K+ contraction (%), Tonic (rat thoracic aorta; conc 1 μM): 74.0 ± 4.1% | K+ contraction (%), Tonic (rat thoracic aorta; conc 3 μM): 36.5 ± 3.2% | K+ contraction (%), Tonic (rat thoracic aorta; conc 5 μM): 25.7 ± 3.9% | K+ contraction (%), Tonic (rat thoracic aorta; conc 10 μM): 14.8 ± 2.1% | norepinephrine contraction (%), Phrase (phasic) (rat thoracic aorta; conc 10 μM): 111.1 ± 6.2% | norepinephrine contraction (%), Tonic (rat thoracic aorta; conc 10 μM): 78.4 ± 8.8% | bioactivity [1]: has not been observed | Aggregation (%) (rabbit platelets; inducer AA (100 μM), conc 5 μM, control 92.1 ± 1.3): 76.0 ± 7.8% | Aggregation (%) (rabbit platelets; inducer AA (100 μM), conc 10 μM, control 92.1 ± 1.3): 5.9 ± 5.3% | Aggregation (%) (rabbit platelets; [5]): 0.0 ± 0.0% | Aggregation (%) (rabbit platelets; [6]): 67.9 ± 8.4% | Aggregation (%) (rabbit platelets; [7]): 91.7 ± 2.0% | Aggregation (%) (rabbit platelets; [8]): 88.6 ± 3.2% | Aggregation (%) (rabbit platelets; [9]): 79.7 ± 4.7% | Aggregation (%) (rabbit platelets; [10]): 16.4 ± 4.4% | Aggregation (%) (rabbit platelets; [11]): 0.0 ± 0.0% | Aggregation (%) (rabbit platelets; [12]): 85.3 ± 6.6%

COc1ccc(CC(C)C(C)C(=O)c2ccc(OC)c(OC)c2)cc1OC (stereo not shown) [Compound 4, dimethylcinnamophilin]
K+ contraction (%), Tonic (rat thoracic aorta; conc 10 μM): 10.5% | norepinephrine contraction (%), Phrase (phasic) (rat thoracic aorta; conc 10 μM): 61.3 ± 2.1% | norepinephrine contraction (%), Tonic (rat thoracic aorta; conc 10 μM): 48.6 ± 3.3% | Aggregation (%) (rabbit platelets; [5]): 87.8 ± 3.3% | Aggregation (%) (rabbit platelets; [13]): 75.8 ± 10.6% | Aggregation (%) (rabbit platelets; [14]): 37.7 ± 1.6% | Aggregation (%) (rabbit platelets; [15]): 0.0 ± 0.0% | Aggregation (%) (rabbit platelets; [6]): 30.7 ± 13.0% | Aggregation (%) (rabbit platelets; [7]): 0.0 ± 0.0% | Aggregation (%) (rabbit platelets; [8]): 86.5 ± 1.7% | Aggregation (%) (rabbit platelets; [9]): 86.2 ± 4.7% | Aggregation (%) (rabbit platelets; [10]): 80.3 ± 3.6% | Aggregation (%) (rabbit platelets; [11]): 7.5 ± 6.4% | Aggregation (%) (rabbit platelets; [12]): 89.7 ± 3.5%

COc1cc(CC(C)C(C)C(O)c2ccc(O)c(OC)c2)ccc1O (stereo not shown) [Compound 7, cinnamophilinol]
K+ contraction (%), Tonic (rat thoracic aorta; conc 10 μM): 66.8 ± 2.2% | K+ contraction (%), Tonic (rat thoracic aorta; conc 50 μM): 51.0 ± 4.4% | norepinephrine contraction (%), Phrase (phasic) (rat thoracic aorta; conc 10 μM): 100% | norepinephrine contraction (%), Phrase (phasic) (rat thoracic aorta; conc 50 μM): 95.5 ± 3.2% | norepinephrine contraction (%), Tonic (rat thoracic aorta; conc 10 μM): 113.3 ± 7.5% | norepinephrine contraction (%), Tonic (rat thoracic aorta; conc 50 μM): 85.3 ± 10.4% | Aggregation (%) (rabbit platelets; [5]): 86.3 ± 1.0% | Aggregation (%) (rabbit platelets; [13]): 75.5 ± 6.2% | Aggregation (%) (rabbit platelets; [14]): 10.4 ± 9.0% | Aggregation (%) (rabbit platelets; [15]): 0.0 ± 0.0% | Aggregation (%) (rabbit platelets; [6]): 77.3 ± 4.0% | Aggregation (%) (rabbit platelets; [7]): 79.7 ± 6.6% | Aggregation (%) (rabbit platelets; [8]): 90.4 ± 1.4% | Aggregation (%) (rabbit platelets; [9]): 89.7 ± 3.4% | Aggregation (%) (rabbit platelets; [10]): 75.5 ± 2.4% | Aggregation (%) (rabbit platelets; [11]): 0.0 ± 0.0% | Aggregation (%) (rabbit platelets; [12]): 73.2 ± 6.8%

O=C(O)CCCCO/N=C(/c1cccnc1)c1cccc(C(F)(F)F)c1 [ridogrel]
IC50 [2]: 5 nM | IC50 (thromboxane receptor): 2000 nM

Cc1c(C)c2c(c(C)c1O)CCC(C)(CCCC(C)CCCC(C)CCCC(C)C)O2 (stereo not drawn) [vitamin E, α-tocopherol, reference compound]
Absorbance at 500 nm ([3]; induce time 0, control 0.047): 0.026 | Absorbance at 500 nm ([3]; induce time 4, control 0.084): 0.069 | Absorbance at 500 nm ([3]; induce time 7, control 0.201): 0.083 | Absorbance at 500 nm ([3]; induce time 10, control 0.343): 0.108 | Absorbance at 500 nm ([3]; induce time 16): 0.176 | Absorbance at 500 nm ([3]; induce time 19): 0.226 | Absorbance at 500 nm ([3]; induce time 22): 0.297 | Absorbance at 500 nm ([3]; induce time 25): 0.487 | Absorbance at 500 nm ([3]; induce time 28): 1.024 | antioxidative action on fatty oils [4]: lower than BHA (t-butylhydroxyanisole) or BHT (t-butylhydroxy toluene)

COc1cc(CC(C)C(C)C(=O)c2ccc(OC(C)=O)c(OC)c2)ccc1OC(C)=O (stereo not shown) [Compound 5]
K+ contraction (%), Tonic (rat thoracic aorta; conc 10 μM): 18.4 ± 4.7% | norepinephrine contraction (%), Phrase (phasic) (rat thoracic aorta; conc 10 μM): 92.2 ± 13.4% | norepinephrine contraction (%), Tonic (rat thoracic aorta; conc 10 μM): 64.6 ± 9.1% | Aggregation (%) (rabbit platelets; [5]): 86.3 ± 4.6% | Aggregation (%) (rabbit platelets; [13]): 57.8 ± 2.8% | Aggregation (%) (rabbit platelets; [14]): 0.0 ± 0.0% | Aggregation (%) (rabbit platelets; [6]): 60.7 ± 12.0% | Aggregation (%) (rabbit platelets; [7]): 45.2 ± 9.2% | Aggregation (%) (rabbit platelets; [8]): 88.4 ± 4.3% | Aggregation (%) (rabbit platelets; [9]): 93.4 ± 1.2% | Aggregation (%) (rabbit platelets; [10]): 80.6 ± 4.7% | Aggregation (%) (rabbit platelets; [11]): 8.4 ± 7.3% | Aggregation (%) (rabbit platelets; [12]): 94.9 ± 1.0%
